According to patent US8575183B2, “Heterocyclic compounds and their uses” (priority 2010, dated 2013):
Several values for one entry are separate records, joined by “and”; a condition that tells them apart may be missing. Equal values may be shown once. Read-outs that look alike come from different tables or passages of the source.

Experiments:
p110δ = p110δ (Homo sapiens, UniProt O00329); details: cited from earlier work
murine model of asthma = details: ovalbumin-induced airway inflammation; cited from earlier work
protein kinases = details: cited from earlier work
[1] = system: Class I PI3 kinase isoforms; details: cited from earlier work
P110β = P110β (Homo sapiens, UniProt P42338); details: cited from earlier work
PI3k δ = target: T1, PI3k δ (Homo sapiens, UniProt O00329); assay: biochemical; format: biochemical
T1 construct: Full length p110 subunits of PI3k α, β and δ; polyHis (N); made in house; host or cells: Sf9 insect cells (baculovirus)
Method: Full length p110 subunits of PI3k α, β and δ, N-terminally labeled with polyHis tag, were coexpressed with p85 with Baculo virus expression vectors in sf9 insect cells. P110/p85 heterodimers were purified by sequential Ni-NTA, Q-HP, Superdex-100 chromatography. Purified α, β and δ isozymes were stored at −20° C. in 20 mM Tris, pH 8, 0.2M NaCl, 50% glycerol, 5 mM DTT, 2 mM Na cholate. […] The γ isozyme was purified by sequential Ni-NTA, Superdex-200, Q-HP chromatography. The γ isozyme was stored frozen at −80° C. in NaH2PO4, pH 8, 0.2M NaCl, 1% ethylene glycol, 2 mM β-mercaptoethanol.
Phospatidyl inositol phosphoacceptor, Ptdlns(4,5)P2 P4508, was from Echelon Biosciences. […] Test compounds were dissolved in dimethyl sulfoxide and diluted with three-fold serial dilutions. The compound in DMSO (1 μL) was added per test well, and the inhibition relative to reactions containing no compound, with and without enzyme was determined. After assay incubation at rt, the reaction was stopped and residual ATP determined by addition of an equal volume of a commercial ATP bioluminescence kit (Perkin Elmer EasyLite) according to the manufacturer's instructions, and detected using a AnalystGT luminometer.

[2] = system: mouse model of rheumatoid arthritis; details: in vivo; cited from earlier work
[3] = system: model of systemic lupus erythematosis; details: in vivo; cited from earlier work

T1 sequence (O00329 whole entry): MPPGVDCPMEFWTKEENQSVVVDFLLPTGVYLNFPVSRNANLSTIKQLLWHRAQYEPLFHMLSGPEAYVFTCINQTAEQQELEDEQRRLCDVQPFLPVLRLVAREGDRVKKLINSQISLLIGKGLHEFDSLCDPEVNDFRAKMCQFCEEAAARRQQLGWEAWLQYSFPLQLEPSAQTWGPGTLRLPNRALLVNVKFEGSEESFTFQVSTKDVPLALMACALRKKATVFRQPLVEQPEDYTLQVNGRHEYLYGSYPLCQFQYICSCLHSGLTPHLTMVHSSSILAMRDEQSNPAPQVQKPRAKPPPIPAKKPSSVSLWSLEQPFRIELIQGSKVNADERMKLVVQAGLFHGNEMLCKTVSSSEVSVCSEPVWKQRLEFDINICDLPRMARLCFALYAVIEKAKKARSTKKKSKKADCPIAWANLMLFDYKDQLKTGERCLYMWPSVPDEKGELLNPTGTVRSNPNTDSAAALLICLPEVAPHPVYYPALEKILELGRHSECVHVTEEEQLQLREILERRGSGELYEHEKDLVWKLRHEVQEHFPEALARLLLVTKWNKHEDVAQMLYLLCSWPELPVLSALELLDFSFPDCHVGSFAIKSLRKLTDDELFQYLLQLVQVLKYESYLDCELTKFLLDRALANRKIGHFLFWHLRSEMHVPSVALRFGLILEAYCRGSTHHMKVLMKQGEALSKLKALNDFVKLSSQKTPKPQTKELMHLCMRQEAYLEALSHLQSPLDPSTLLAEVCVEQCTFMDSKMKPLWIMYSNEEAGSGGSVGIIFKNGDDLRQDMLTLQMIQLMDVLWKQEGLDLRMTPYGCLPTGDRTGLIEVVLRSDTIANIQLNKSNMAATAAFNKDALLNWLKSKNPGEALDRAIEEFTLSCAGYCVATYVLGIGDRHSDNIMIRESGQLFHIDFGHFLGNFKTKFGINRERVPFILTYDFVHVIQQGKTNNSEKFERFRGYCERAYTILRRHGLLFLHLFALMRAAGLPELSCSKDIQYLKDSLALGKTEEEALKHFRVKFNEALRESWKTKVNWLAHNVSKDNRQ
T1 sequence (P27986 whole entry partner): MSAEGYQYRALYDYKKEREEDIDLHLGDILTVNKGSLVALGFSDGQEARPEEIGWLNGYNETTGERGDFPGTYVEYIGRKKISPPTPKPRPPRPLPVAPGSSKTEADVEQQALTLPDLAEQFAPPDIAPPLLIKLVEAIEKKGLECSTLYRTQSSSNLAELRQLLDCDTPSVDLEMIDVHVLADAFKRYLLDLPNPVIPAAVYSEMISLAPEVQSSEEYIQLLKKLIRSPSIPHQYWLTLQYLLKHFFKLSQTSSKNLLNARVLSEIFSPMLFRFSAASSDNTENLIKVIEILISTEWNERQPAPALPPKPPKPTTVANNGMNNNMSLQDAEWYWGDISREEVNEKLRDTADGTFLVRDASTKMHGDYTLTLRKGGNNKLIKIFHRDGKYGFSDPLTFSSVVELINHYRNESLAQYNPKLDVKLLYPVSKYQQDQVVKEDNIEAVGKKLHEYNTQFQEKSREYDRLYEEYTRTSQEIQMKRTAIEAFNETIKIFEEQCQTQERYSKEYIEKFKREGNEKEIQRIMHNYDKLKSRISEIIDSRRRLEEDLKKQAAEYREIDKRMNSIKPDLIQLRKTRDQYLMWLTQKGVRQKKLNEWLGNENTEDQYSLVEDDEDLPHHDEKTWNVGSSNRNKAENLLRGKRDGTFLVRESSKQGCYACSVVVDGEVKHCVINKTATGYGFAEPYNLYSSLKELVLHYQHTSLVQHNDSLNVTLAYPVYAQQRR
Sequence of p110δ (O00329 whole entry): as the sequence (O00329 whole entry) above
Sequence of p110δ (P27986 whole entry partner): as the sequence (P27986 whole entry partner) above
Sequence of P110β (P42338 whole entry): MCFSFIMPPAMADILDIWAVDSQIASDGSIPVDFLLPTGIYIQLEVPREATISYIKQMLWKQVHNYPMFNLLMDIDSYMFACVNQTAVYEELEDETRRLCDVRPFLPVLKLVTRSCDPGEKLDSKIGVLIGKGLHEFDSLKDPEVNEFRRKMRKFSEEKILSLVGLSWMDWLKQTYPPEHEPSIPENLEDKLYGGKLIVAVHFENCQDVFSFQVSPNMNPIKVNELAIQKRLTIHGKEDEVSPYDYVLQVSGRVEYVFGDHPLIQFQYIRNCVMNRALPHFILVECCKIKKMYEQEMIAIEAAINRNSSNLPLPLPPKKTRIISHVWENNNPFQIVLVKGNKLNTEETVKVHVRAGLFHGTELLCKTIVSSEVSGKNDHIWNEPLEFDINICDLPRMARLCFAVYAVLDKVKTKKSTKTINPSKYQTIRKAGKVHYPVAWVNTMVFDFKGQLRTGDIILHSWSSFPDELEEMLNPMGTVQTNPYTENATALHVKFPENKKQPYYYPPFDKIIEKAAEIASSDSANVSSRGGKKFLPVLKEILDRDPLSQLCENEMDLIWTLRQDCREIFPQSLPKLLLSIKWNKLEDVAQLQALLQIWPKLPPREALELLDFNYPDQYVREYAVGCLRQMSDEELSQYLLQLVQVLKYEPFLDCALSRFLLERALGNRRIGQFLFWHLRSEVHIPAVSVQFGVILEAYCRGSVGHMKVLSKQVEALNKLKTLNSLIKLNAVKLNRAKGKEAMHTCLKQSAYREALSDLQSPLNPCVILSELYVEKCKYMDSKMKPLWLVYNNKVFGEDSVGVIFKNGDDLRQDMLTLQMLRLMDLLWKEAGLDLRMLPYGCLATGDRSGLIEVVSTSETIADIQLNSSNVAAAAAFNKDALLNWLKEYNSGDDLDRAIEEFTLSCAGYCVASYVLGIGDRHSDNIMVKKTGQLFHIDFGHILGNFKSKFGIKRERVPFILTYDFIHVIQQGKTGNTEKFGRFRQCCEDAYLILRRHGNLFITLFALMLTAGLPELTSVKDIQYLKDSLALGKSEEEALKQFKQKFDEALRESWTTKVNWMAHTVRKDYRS
Sequence of P110β (P27986 whole entry partner): as the sequence (P27986 whole entry partner) above

| SMILES | Ki (PI3k δ; read-out: PI3k δ Ki) | further results |
| --- | --- | --- |
| Cc1ccccc1-n1c(Cn2cnc3c(N)ncnc32)nc2cccc(C)c2c1=O [IC87114] | – | inhibition of p110δ (p110δ): high nanomolar range (triple digit); inflammation and disease in a murine model of asthma (murine model of asthma): significantly ameliorate inflammation and disease; activity against any protein kinases tested (protein kinases): no activity |
| Cc1cc(C(C)Nc2ccccc2)c2nc(N3CCOCC3)cc(=O)n2c1 (stereo not shown) [TGX-221] | – | selectivity over delta ([1]; beta over delta): 14 fold; selectivity over gamma and alpha ([1]; beta over gamma and alpha): more than 500 fold; potency on beta (P110β): 7 nM |
| C[C@H](Nc1ncnc(N)c1C#N)c1nc2cccc(F)c2n1-c1cc(F)cc(F)c1 [4-amino-6-(((1S)-1-(1-(3,5-difluorophenyl)-7-fluoro-1H-benzimidazol-2-yl)ethyl)amino)-5-pyrimidinecarbonitrile] | 3.7 nM | – |
| C[C@H](Nc1ncnc(N)c1C#N)c1nc2ccc(F)cn2c1-c1ccc(Cl)cc1 [4-amino-6-(((1S)-1-(3-(4-chlorophenyl)-6-fluoroimidazo[1,2-a]pyridin-2-yl)ethyl)amino)-5-pyrimidinecarbonitrile] | 25.1 nM | – |
| C[C@H](Nc1ncnc(N)c1C#N)c1nc2cc(F)ccc2n1-c1cncc(F)c1 [4-amino-6-(((1S)-1-(5-fluoro-1-(5-fluoro-3-pyridinyl)-1H-benzimidazol-2-yl)ethyl)amino)-5-pyrimidinecarbonitrile] | 96.4 nM | – |
| CC(Nc1ncnc(N)c1C#N)c1nc2ncccc2n1-c1ccccn1 (stereo not shown) | – | Ki (PI3k δ): 2900 nM |
| C[C@@H](Nc1ncnc(N)c1C#N)c1nc2ccc(F)cc2n1-c1cncc(NS(C)(=O)=O)c1 [N-(5-(2-((1R)-1-((6-amino-5-cyano-4-pyrimidinyl)amino)ethyl)-6-fluoro-1H-benzimidazol-1-yl)-3-pyridinyl)methanesulfonamide] | 600 nM | – |
| C[C@@H](Nc1ncnc(N)c1C#N)c1nc2c(F)cccc2n1-c1cc(F)cc(F)c1 [4-amino-6-(((1R)-1-(1-(3,5-difluorophenyl)-4-fluoro-1H-benzimidazol-2-yl)ethyl)amino)-5-pyrimidinecarbonitrile] | 4180 nM | – |
| C[C@H](Nc1ncnc(N)c1C#N)c1nc2cccnn2c1-c1ccccn1 [4-amino-6-(((1S)-1-(3-(2-pyridinyl)imidazo[1,2-b]pyridazin-2-yl)ethyl)amino)-5-pyrimidinecarbonitrile] | 2010 nM | – |
| C[C@H](Nc1ncnc(N)c1C#N)c1nc2cccc(S(C)(=O)=O)c2n1CC1CC1 [4-amino-6-(((1S)-1-(1-(cyclopropylmethyl)-7-(methylsulfonyl)-1H-benzimidazol-2-yl)ethyl)amino)-5-pyrimidinecarbonitrile] | 2.2 nM | – |
| C[C@H](Nc1ncnc(N)c1C#N)c1nc2ccc(F)cc2n1CC1CC1 [4-amino-6-(((1S)-1-(1-(cyclopropylmethyl)-6-fluoro-1H-benzimidazol-2-yl)ethyl)amino)-5-pyrimidinecarbonitrile] | 3.1 nM | – |
| C[C@H](Nc1ncnc(N)c1C#N)c1nc2ccc(F)cn2c1-c1cc(F)cc(Cl)c1 [4-amino-6-(((1S)-1-(3-(3-chloro-5-fluorophenyl)-6-fluoroimidazo[1,2-a]pyridin-2-yl)ethyl)amino)-5-pyrimidinecarbonitrile] | 8.8 nM | – |
| C[C@H](Nc1ncnc(N)c1C#N)c1nc2ccc(F)cc2n1-c1cncc(-c2ccccn2)c1 [4-amino-6-(((1S)-1-(1-(2,3′-bipyridin-5′-yl)-6-fluoro-1H-benzimidazol-2-yl)ethyl)amino)-5-pyrimidinecarbonitrile] | – | Ki (PI3k δ): 248 nM |
| C[C@H](Nc1ncnc(N)c1C#N)c1nc2cc(F)ccc2n1CC1CC1 [4-amino-6-(((1S)-1-(1-(cyclopropylmethyl)-5-fluoro-1H-benzimidazol-2-yl)ethyl)amino)-5-pyrimidinecarbonitrile] | 6 nM and 25.8 nM | – |
| CC(Nc1ncnc(N)c1C#N)c1nc2cccc(S(C)(=O)=O)c2n1C1CC1 (stereo not shown) | – | Ki (PI3k δ): 3.76 nM |
| C[C@H](Nc1ncnc(N)c1C#N)c1nc2cccc(S(C)(=O)=O)c2[nH]1 [4-amino-6-(((1S)-1-(7-(methylsulfonyl)-1H-benzimidazol-2-yl)ethyl)amino)-5-pyrimidinecarbonitrile] | 45.5 nM | – |
| O=C1NC(=O)/C(=C\c2ccc3nccnc3c2)S1 [AS 605240] | – | efficacy in a mouse model of rheumatoid arthritis [2]: efficacious; onset of disease in a model of systemic lupus erythematosis [3]: delay onset of disease |
